Consider three molecules from US11000033B2, “Ketone or oxime compound, and herbicide” (NISSAN CHEMICAL CORPORATION, priority 2014, dated 2021).

Holding throughout (format): in vivo
One series relates to rapeseed. Briefly: Test Example 4: effect on crop by soil treatment (symbol g). The note with it: application herbicide amount 320 g/ha. Put shortly:
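Grown at 25° C. to 30° C. in a greenhouse, the crops came from seed sown spot-wise in sterilized diluvial soil under roughly 1.5 cm of covering soil.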

A further series deals with Scirpus juncoides. Briefly: Test Example 2: herbicidal activity, application during weed generation in submerged conditions (symbol B). As to conditions: Table 23; application herbicide amount 320 g/ha; grade 0-5 by criteria of Test Example 1. Put shortly: (§1)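 Alluvial soil in pots was flooded to a 4 cm water depth and sown with a mix of the three weed species, then grown in a greenhouse at 25° C. to 30° C. At the one- to two-leaf stage, an emulsifiable formulation diluted in water to a set dose was applied to the water surface. Effects were scored visually 3 weeks later.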

For series [1], the system named is Digitaria ciliaris. Briefly: Test Example 5: herbicidal effect by foliage application, plastic box (symbol F). As to conditions: 320 g/ha, 3 weeks after application. Put shortly:
(§2)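 After sowing into sterilized diluvial soil and growing two weeks under glass at 25° C. to 30° C., seedlings receive a uniform foliar spray of diluted emulsion. Damage is judged visually three weeks on.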

The test system of another series is Lolium multiflorum Lam. Briefly: Test Example 4: herbicidal effect by soil treatment (symbol K). As to conditions: application herbicide amount 320 g/ha. Put shortly:
(§3)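 Seeds were sown in sterilized diluvial soil, covered with about 1.5 cm of soil, and the soil surface was sprayed with a water-diluted emulsion of the compound at a predetermined rate. Plants grew in a greenhouse at 25° C. to 30° C.; effects were scored visually 3 weeks after application.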

In series [2] the test system is Echinochloa crus-galli var. crus-galli. Briefly: Test Example 4: herbicidal effect by soil treatment (symbol H). As to conditions: application herbicide amount 320 g/ha. Put shortly:
as §3

The subject of series [3] is Amaranthus retroflexus. Briefly: Test Example 5: herbicidal effect by foliage application, plastic box (symbol N). The note with it: 320 g/ha, 3 weeks after application. Put shortly:
as §2

In another series the test system is Veronica persica. Put plainly: Test Example 5: herbicidal effect by foliage application, plastic box (symbol R). As to conditions: 320 g/ha, 3 weeks after application. Put shortly: as §2
The subject of another series is wheat. Briefly: Test Example 5: effect on crop by foliage application, plastic box (symbol e). The note with it: 320 g/ha, 3 weeks after application. Put shortly:
(§4)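 Seeds were sown in spots in sterilized diluvial soil held in a plastic box 21 cm × 13 cm × 7 cm deep, covered with about 1.5 cm of soil, and grown in a greenhouse at 25° C. to 30° C.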

The next series has as its system Leptochloa chinensis. Put plainly: Test Example 3: herbicidal effect by foliage application, Wagner pot (symbol D). As to conditions: application herbicide amount 320 g/ha. Put shortly:
(§5)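 Weeds and rice were sown in alluvial soil under 0.1–0.5 cm of standing water and grown for 14 days in a 25–30 °C greenhouse. An emulsion of the compound, diluted in water to a set dose, was sprayed evenly onto the foliage. Effect was scored against fixed criteria 3 weeks after treatment.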

The subject of another series is Abutilon theophrasti. Briefly: Test Example 4: herbicidal effect by soil treatment (symbol M). As to conditions: application herbicide amount 320 g/ha. Put shortly: as §3
For series [4], the system named is Digitaria ciliaris. Put plainly: Test Example 4: herbicidal effect by soil treatment (symbol F). The note with it: application herbicide amount 320 g/ha. Put shortly:
as §3

Series [5] relates to Amaranthus retroflexus. Put plainly: Test Example 4: herbicidal effect by soil treatment (symbol N). As to conditions: application herbicide amount 320 g/ha. Put shortly: as §3
Series [6] relates to Echinochloa crus-galli var. crus-galli. Briefly: Test Example 3: herbicidal effect by foliage application, Wagner pot (symbol H). As to conditions: application herbicide amount 320 g/ha. Put shortly:
as §5

Series [7] deals with Echinochloa oryzacola Vasing. Briefly: Test Example 2: herbicidal activity, application during weed generation in submerged conditions (symbol A). As to conditions: Table 23; application herbicide amount 320 g/ha; grade 0-5 by criteria of Test Example 1. Put shortly: as §1
The next series has as its system Apera spica-venti. Put plainly: Test Example 4: herbicidal effect by soil treatment (symbol L). As to conditions: application herbicide amount 320 g/ha. Put shortly:
as §3

For another series, the system named is Stellaria media. Put plainly: Test Example 5: herbicidal effect by foliage application, plastic box (symbol P). As to conditions: 320 g/ha, 3 weeks after application. Put shortly:
as §2

In another series the test system is beet. Put plainly: Test Example 5: effect on crop by foliage application, plastic box (symbol f). As to conditions: 320 g/ha, 3 weeks after application. Put shortly:
as §4

A further series deals with Avena fatua. Put plainly: Test Example 5: herbicidal effect by foliage application, plastic box (symbol I). As to conditions: 320 g/ha, 3 weeks after application. Put shortly: as §2
The subject of a further series is Chenopodium album. Briefly: Test Example 5: herbicidal effect by foliage application, plastic box (symbol O). The note with it: 320 g/ha, 3 weeks after application. Put shortly:
as §2

For the next series, the system named is rice plant. Briefly: Test Example 5: effect on crop by foliage application, plastic box (symbol b). As to conditions: 320 g/ha, 3 weeks after application. Put shortly: as §4

As to `CON=C(C)CC1CC(O)=C(c2c(C)cc(-c3ccc(Cl)cc3)cc2C)C1=O` (mixture of isomers) [6-029], the “g: rapeseed, effect on crop grade” value with rapeseed was 2 (Herbicidal ratio of 20% or higher and lower than 40%). The “Herbicidal effect grade, B: Scirpus juncoides” value (shortened to “Herbicidal effect grade, B”) with Scirpus juncoides is 3 (Herbicidal ratio of 40% or higher and lower than 70%). For the same molecule, the “F: Digitaria ciliaris, herbicidal effect grade” value (from here on “F: Digitaria ciliaris”) with Digitaria ciliaris [1] and with Digitaria ciliaris [4] was 5 (Herbicidal ratio of 90% or more (almost completely withered)) in each case. Moreover, the “K: Lolium multiflorum Lam., herbicidal effect grade” value in the series with Lolium multiflorum Lam. was 5 (Herbicidal ratio of 90% or more (almost completely withered)). The “H: Echinochloa crus-galli var. crus-galli, herbicidal effect grade” value in series [2] is recorded as 5 (Herbicidal ratio of 90% or more (almost completely withered)). Besides, the “N: Amaranthus retroflexus, herbicidal effect grade” value (“N: Amaranthus retroflexus” below) is listed as 5 (Herbicidal ratio of 90% or more (almost completely withered)) with Amaranthus retroflexus [3] and 0 (Herbicidal ratio of 5% or lower (almost no effect)) in the series with Amaranthus retroflexus [5]. Also, the “R: Veronica persica, herbicidal effect grade” value (shortened to “R: Veronica persica”) in the series with Veronica persica was 4 (Herbicidal ratio of 70% or higher and lower than 90%). The “e: wheat, effect on crop grade” value with wheat is listed as 5 (Herbicidal ratio of 90% or more (almost completely withered)). In the series on Leptochloa chinensis, the “herbicidal effect on D (Leptochloa chinensis), grade 0-5” value (shortened to “herbicidal effect on D”) is 5 (Herbicidal ratio of 90% or more (almost completely withered)). In addition, in the series on Abutilon theophrasti, the “M: Abutilon theophrasti, herbicidal effect grade” value (“M: Abutilon theophrasti” below) is on record as 0 (Herbicidal ratio of 5% or lower (almost no effect)). Moreover, in series [6], the “herbicidal effect on H (Echinochloa crus-galli var. crus-galli), grade 0-5” value (“herbicidal effect on H” for short) is listed as 5 (Herbicidal ratio of 90% or more (almost completely withered)). Besides, the “Herbicidal effect grade, A: Echinochloa oryzacola Vasing.” value in series [7] is listed as 5 (Herbicidal ratio of 90% or more (almost completely withered)). The “L: Apera spica-venti, herbicidal effect grade” value (shortened to “L: Apera spica-venti”) with Apera spica-venti is recorded as 5 (Herbicidal ratio of 90% or more (almost completely withered)). Moreover, the “P: Stellaria media, herbicidal effect grade” value (“P: Stellaria media” below) with Stellaria media is 3 (Herbicidal ratio of 40% or higher and lower than 70%). Also, in the series with beet, the “f: beet, effect on crop grade” value is on record as 0 (Herbicidal ratio of 5% or lower (almost no effect)). Also, the “I: Avena fatua, herbicidal effect grade” value in the series on Avena fatua is recorded as 5 (Herbicidal ratio of 90% or more (almost completely withered)). Further, the “O: Chenopodium album, herbicidal effect grade” value (“O: Chenopodium album” below) in the series with Chenopodium album was 4 (Herbicidal ratio of 70% or higher and lower than 90%). In the series on rice plant, the “b: directly sowed rice plant, effect on crop grade” value (from here on “b: directly sowed rice plant”) was 5 (Herbicidal ratio of 90% or more (almost completely withered)).

Regarding `C=Cc1cc(C)c(C2=C(O)CC(CC(C)=NOC)C2=O)c(C)c1` (mixture of isomers) [6-031], in the series with rapeseed, the “g: rapeseed, effect on crop grade” value was 3 (Herbicidal ratio of 40% or higher and lower than 70%). Besides, the “Herbicidal effect grade, B” value in the series on Scirpus juncoides was 0 (Herbicidal ratio of 5% or lower (almost no effect)). The “F: Digitaria ciliaris” value was 5 (Herbicidal ratio of 90% or more (almost completely withered)) with Digitaria ciliaris [1] and 0 (Herbicidal ratio of 5% or lower (almost no effect)) in the series on Digitaria ciliaris [4]. The “K: Lolium multiflorum Lam., herbicidal effect grade” value with Lolium multiflorum Lam. was 3 (Herbicidal ratio of 40% or higher and lower than 70%). Further, in [2], the “H: Echinochloa crus-galli var. crus-galli, herbicidal effect grade” value is on record as 0 (Herbicidal ratio of 5% or lower (almost no effect)). Moreover, the “N: Amaranthus retroflexus” value in the series on Amaranthus retroflexus [3] is 0 (Herbicidal ratio of 5% or lower (almost no effect)); in the series with Amaranthus retroflexus [5], 4 (Herbicidal ratio of 70% or higher and lower than 90%). Further, in the series on Veronica persica, the “R: Veronica persica” value was 1 (Herbicidal ratio of 5% or higher and lower than 20%). For the same molecule, the “e: wheat, effect on crop grade” value with wheat is 0 (Herbicidal ratio of 5% or lower (almost no effect)). Besides, in the series with Leptochloa chinensis, the “herbicidal effect on D” value was 2 (Herbicidal ratio of 20% or higher and lower than 40%). The “M: Abutilon theophrasti” value with Abutilon theophrasti was 0 (Herbicidal ratio of 5% or lower (almost no effect)). Further, the “herbicidal effect on H” value in [6] is 3 (Herbicidal ratio of 40% or higher and lower than 70%). For the same molecule, the “Herbicidal effect grade, A: Echinochloa oryzacola Vasing.” value in series [7] was 4 (Herbicidal ratio of 70% or higher and lower than 90%). The “L: Apera spica-venti” value with Apera spica-venti is given as 0 (Herbicidal ratio of 5% or lower (almost no effect)). For the same molecule, in the series with Stellaria media, the “P: Stellaria media” value is given as 0 (Herbicidal ratio of 5% or lower (almost no effect)). The “f: beet, effect on crop grade” value in the series on beet was 0 (Herbicidal ratio of 5% or lower (almost no effect)). Moreover, in the series with Avena fatua, the “I: Avena fatua, herbicidal effect grade” value is 5 (Herbicidal ratio of 90% or more (almost completely withered)). Also, in the series on Chenopodium album, the “O: Chenopodium album” value was 3 (Herbicidal ratio of 40% or higher and lower than 70%). Moreover, in the series on rice plant, the “b: directly sowed rice plant” value is listed as 5 (Herbicidal ratio of 90% or more (almost completely withered)).

Turning to `CON=C(C)CC1CC(O)=C(c2c(C)cc(-c3cccc(Cl)c3)cc2C)C1=O` (mixture of isomers) [6-034], the “g: rapeseed, effect on crop grade” value with rapeseed was 1 (Herbicidal ratio of 5% or higher and lower than 20%). In the series with Scirpus juncoides, the “Herbicidal effect grade, B” value was 5 (Herbicidal ratio of 90% or more (almost completely withered)). For the same molecule, the “F: Digitaria ciliaris” value in the series on Digitaria ciliaris [1] and with Digitaria ciliaris [4] was 5 (Herbicidal ratio of 90% or more (almost completely withered)) in each case. In addition, the “K: Lolium multiflorum Lam., herbicidal effect grade” value with Lolium multiflorum Lam. is reported as 5 (Herbicidal ratio of 90% or more (almost completely withered)). Also, in series [2], the “H: Echinochloa crus-galli var. crus-galli, herbicidal effect grade” value is recorded as 5 (Herbicidal ratio of 90% or more (almost completely withered)). The “N: Amaranthus retroflexus” value was 3 (Herbicidal ratio of 40% or higher and lower than 70%) in the series with Amaranthus retroflexus [3]; 2 (Herbicidal ratio of 20% or higher and lower than 40%) in the series with Amaranthus retroflexus [5]. Further, the “R: Veronica persica” value in the series with Veronica persica was 3 (Herbicidal ratio of 40% or higher and lower than 70%). In addition, the “e: wheat, effect on crop grade” value with wheat is 0 (Herbicidal ratio of 5% or lower (almost no effect)). The “herbicidal effect on D” value in the series on Leptochloa chinensis is 5 (Herbicidal ratio of 90% or more (almost completely withered)). In addition, the “M: Abutilon theophrasti” value with Abutilon theophrasti is 1 (Herbicidal ratio of 5% or higher and lower than 20%). For the same molecule, the “herbicidal effect on H” value in series [6] is recorded as 5 (Herbicidal ratio of 90% or more (almost completely withered)). Also, in series [7], the “Herbicidal effect grade, A: Echinochloa oryzacola Vasing.” value is given as 5 (Herbicidal ratio of 90% or more (almost completely withered)). The “L: Apera spica-venti” value in the series with Apera spica-venti is reported as 5 (Herbicidal ratio of 90% or more (almost completely withered)). Further, in the series on Stellaria media, the “P: Stellaria media” value was 3 (Herbicidal ratio of 40% or higher and lower than 70%). The “f: beet, effect on crop grade” value in the series with beet is on record as 0 (Herbicidal ratio of 5% or lower (almost no effect)). The “I: Avena fatua, herbicidal effect grade” value with Avena fatua is listed as 5 (Herbicidal ratio of 90% or more (almost completely withered)). Moreover, in the series with Chenopodium album, the “O: Chenopodium album” value was 3 (Herbicidal ratio of 40% or higher and lower than 70%). The “b: directly sowed rice plant” value with rice plant was 5 (Herbicidal ratio of 90% or more (almost completely withered)).
